This note sets out measurements from US20260325655A1, “DECREASING THE INTRINSICALLY DISORDERED PROTEIN ALPHA-SYNUCLEIN’S LEVELS BY TARGETING ITS STRUCTURED MRNA WITH A RIBONUCLEASE TARGETING CHIMERA” (University of Florida Research Foundation, Incorporated, priority 2023, published 2026).

Holding throughout (type): cell-based, human
One assay deals with APP. Put plainly: APP protein in SH-SY5Y cells by Western blot. On the procedure:
(§1) Western blotting. After 48 h, cells were gently washed with ice-cold 1× DPBS, and total protein was extracted with Mammalian Protein Extraction Reagent (M-PER, Thermo Scientific) per the manufacturer's protocol. After quantifying protein concentration by using BCA Protein Assay Kit (Pierce Biotechnology), ~30 μg of total protein for each sample was separated using a 10% SDS-polyacrylamide gel and transferred onto a PVDF membrane. The membrane was fixed with 0.4% paraformaldehyde (pH=7.0) for 30 min at room temperature^9 and then blocked with 5% (w/v) non-fat dry milk in 1× TBST (1× TBS containing 0.1% Tween-20) for 1 h at room temperature. […] After washing 10 min each with 1× TBST three times, immunocomplex signals of each protein were detected by using a SuperSignal West Pico Chemiluminescent Substrate (Pierce Biotechnology) according to the manufacturer's protocol. The memebrane was then stripped by using 1× Stripping Buffer (200 mM glycine, pH 2.2, 4 mM SDS, 1% (v/v) Tween 20) at room temperature for 15 min, followed by blocking with 5% (w/v) non-fat dry milk at room temperature for 1 h. β-actin was used to normalize the levels of all proteins, measured by incubating with a primary antibody for β-actin (1:5000, 3700S from Cell Signaling Technology) at 4° C. overnight. […]
(In general: Immunoblotting shows a protein as a band on a membrane.)

The subject of assay [1] is seven proteins encoded by genes enriched by Syn-CLIP. As to the kind of experiment: Western blot validation of seven proteins encoded by transcripts enriched by Syn-CLIP. The note with it: 2 μM, 48 h; SH-SY5Y. On the procedure: as §1
For a further assay, the system named is MYO15B. Put plainly: MYO15B protein in SH-SY5Y cells by Western blot. The note with it: 2 μM, 48 h. On the procedure:
as §1

Turning to `CCOC(=O)C1=C(Nc2ccccc2)S/C(=C\c2ccc(OCCOCCOCCOCCNC(=O)CCCOc3ccc(-n4c(SCC(=O)Nc5ccc6cn[nH]c6c5)nnc4-c4ccncc4)cc3)c(O)c2)C1=O` [Syn-RiboTAC], the “effect on APP protein level” value in the assay on APP is “no effect”. Also, the “effect on seven proteins by Western blot” value in assay [1] was “did not affect these seven proteins”. In addition, the “reduction of MYO15B protein level” value with MYO15B was ~ 20%.

`O=C(CSc1nnc(-c2ccncc2)n1-c1ccc(Br)cc1)Nc1ccc2cn[nH]c2c1` [Synucleozid-2.0]: the “effect on seven proteins by Western blot” value in assay [1] is recorded as “did not affect these seven proteins”.
